According to ChEMBL document CHEMBL6109129, “Discovery of Conformationally Constrained Dihydro Benzo-Indole Derivatives as Metallo-β-Lactamase Inhibitors to Tackle Multidrug-Resistant Bacterial Infections” (J Med Chem, 2025):
pIC50: −log10 of the molar value. ≈ marks a conversion by molar mass, not a printed value. Calls of active or inactive are those of the source. No cut-off for these calls is given here.

Legend:
[1] = Inhibition of VIM-1 (unknown origin) using FC5 as substrate preincubated for 10 mins followed by substrate addition and measured immediately by fluorescence based analysis; parameters: species or system Bacteria
[2] = Inhibition of IMP-1 (unknown origin) using FC5 as substrate preincubated for 10 mins followed by substrate addition and measured immediately by fluorescence based analysis; parameters: species or system Bacteria
[3] = biological target: Metallo-beta-lactamase type 2 (Bacteria, UniProt C7C422); assay: Inhibition of N-terminal truncated NDM1 (1 to 49N residues) (unknown origin) extracted from Escherichia coli BL21(DE3) cells using FC5 as substrate preincubated for 10 mins followed by substrate addition and measured immediately by fluorescence based analysis
Sequence of Metallo-beta-lactamase type 2 (C7C422 whole entry, the tested form may be a part): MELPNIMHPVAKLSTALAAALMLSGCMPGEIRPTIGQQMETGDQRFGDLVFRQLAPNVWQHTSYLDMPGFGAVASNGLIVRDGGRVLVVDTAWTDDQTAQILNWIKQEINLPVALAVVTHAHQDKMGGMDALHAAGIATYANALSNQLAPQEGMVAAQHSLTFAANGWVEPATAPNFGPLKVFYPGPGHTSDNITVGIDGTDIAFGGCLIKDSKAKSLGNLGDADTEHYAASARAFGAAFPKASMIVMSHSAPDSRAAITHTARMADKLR

Klebsiella pneumoniae [4] = assay: Synergistic antibacterial activity against Klebsiella pneumoniae ATCC BAA 2146 expressing NDM-1 measured after 16 to 18 hrs in presence of imipenem by microbial dilution method; assay type: functional, organism-based; conditions: time 16-18 hrs
[5] = biological target: Metallo-beta-lactamase type 2 (Bacteria) (UniProt C7C422); assay: Induction of thermal stabilization of NDM-1 (unknown origin) assessed as melting temperature at 6.25 uM by differential scanning fluorimetry analysis
Sequence of Metallo-beta-lactamase type 2 (Bacteria) (C7C422 whole entry): as the sequence (C7C422 whole entry, the tested form may be a part) above

[6] = biological target: Metallo-beta-lactamase type 2 (Bacteria) (UniProt C7C422); assay: Induction of thermal stabilization of NDM-1 (unknown origin) assessed as melting temperature at 50 uM by differential scanning fluorimetry analysis
[7] = biological target: Metallo-beta-lactamase type 2 (Bacteria) (UniProt C7C422); assay: Induction of thermal stabilization of NDM-1 (unknown origin) assessed as melting temperature at 12.5 uM by differential scanning fluorimetry analysis
Klebsiella pneumoniae [8] = assay: Synergistic antibacterial activity against Klebsiella pneumoniae ATCC BAA 2146 expressing NDM-1 measured after 16 to 18 hrs in presence of meropenem by microbial dilution method; assay type: functional, organism-based; conditions: time 16-18 hrs
[9] = biological target: Metallo-beta-lactamase type 2 (Bacteria) (UniProt C7C422); assay: Induction of thermal stabilization of NDM-1 (unknown origin) assessed as increase in melting temperature by differential scanning fluorimetry analysis; conditions: dose 3.12-50 µM
[10] = biological target: Metallo-beta-lactamase type 2 (Bacteria) (UniProt C7C422); assay: Induction of thermal stabilization of NDM-1 (unknown origin) assessed as melting temperature at 25 uM by differential scanning fluorimetry analysis
[11] = biological target: Metallo-beta-lactamase type 2 (Bacteria) (UniProt C7C422); assay: Induction of thermal stabilization of NDM-1 (unknown origin) assessed as melting temperature at 3.12 uM by differential scanning fluorimetry analysis
Escherichia coli [12] = assay: microbe, parasite or virus in culture; conditions: 567975
Description: Antibacterial activity against carbapenem-resistant Escherichia coli 567975 assessed as reduction in microbial growth measured after 16 to 18 hrs by microbial dilution method

Escherichia coli [13] = assay: Antibacterial activity against carbapenem-resistant Escherichia coli BAA-2471 assessed as reduction in microbial growth measured after 16 to 18 hrs by microbial dilution method; assay type: functional; conditions: time 16-18 hrs
Klebsiella pneumoniae [14] = assay: Antibacterial activity against carbapenem-resistant Klebsiella pneumoniae 538961 assessed as reduction in microbial growth measured after 16 to 18 hrs by microbial dilution method; assay type: functional; conditions: time 16-18 hrs
Enterobacter cloacae = assay: Antibacterial activity against carbapenem-resistant Enterobacter cloacae BAA-2468 assessed as reduction in microbial growth measured after 16 to 18 hrs by microbial dilution method; assay type: functional; conditions: time 16-18 hrs
Klebsiella pneumoniae [15] = assay: Antibacterial activity against carbapenem-resistant Klebsiella pneumoniae 571278 assessed as reduction in microbial growth measured after 16 to 18 hrs by microbial dilution method; assay type: functional; conditions: time 16-18 hrs
Escherichia coli [16] = assay: Antibacterial activity against carbapenem-resistant Escherichia coli BAA-2469 assessed as reduction in microbial growth measured after 16 to 18 hrs by microbial dilution method; assay type: functional; conditions: time 16-18 hrs
[17] = test system: Klebsiella pneumoniae subsp. pneumoniae; assay: Antibacterial activity against carbapenem-resistant Klebsiella pneumoniae subsp. pneumoniae BAA-2470 assessed as reduction in microbial growth measured after 16 to 18 hrs by microbial dilution method; assay type: functional; conditions: time 16-18 hrs
Escherichia coli [18] = assay: microbe, parasite or virus in culture; conditions: 565988
Description: Antibacterial activity against carbapenem-resistant Escherichia coli 565988 assessed as reduction in microbial growth measured after 16 to 18 hrs by microbial dilution method

Klebsiella pneumoniae [19] = assay: Antibacterial activity against carbapenem-resistant Klebsiella pneumoniae BAA-2473 assessed as reduction in microbial growth measured after 16 to 18 hrs by microbial dilution method; assay type: functional; conditions: time 16-18 hrs
Escherichia coli [20] = assay: microbe, parasite or virus in culture; conditions: 541588
Description: Antibacterial activity against carbapenem-resistant Escherichia coli 541588 assessed as reduction in microbial growth measured after 16 to 18 hrs by microbial dilution method

[21] = test system: Klebsiella pneumoniae subsp. pneumoniae; assay: Antibacterial activity against carbapenem-resistant Klebsiella pneumoniae subsp. pneumoniae BAA-2472 assessed as reduction in microbial growth measured after 16 to 18 hrs by microbial dilution method; assay type: functional; conditions: time 16-18 hrs
Klebsiella pneumoniae [22] = assay: Antibacterial activity against carbapenem-resistant Klebsiella pneumoniae 565345 assessed as reduction in microbial growth measured after 16 to 18 hrs by microbial dilution method; assay type: functional; conditions: time 16-18 hrs
Klebsiella pneumoniae [23] = assay: Antibacterial activity against carbapenem-resistant Klebsiella pneumoniae 552439 assessed as reduction in microbial growth measured after 16 to 18 hrs by microbial dilution method; assay type: functional; conditions: time 16-18 hrs
Escherichia coli [24] = assay: Antibacterial activity against carbapenem-resistant Escherichia coli 571307 assessed as reduction in microbial growth measured after 16 to 18 hrs by microbial dilution method; assay type: functional; conditions: time 16-18 hrs
Klebsiella pneumoniae [25] = assay: Anti-infective activity against carbapenem-resistant Klebsiella pneumoniae ATCC BAA 2146 expressing NDM-1 infected in neutropenic female BALB/c mouse deep thigh infection model assessed as reduction in bacterial count at 20 mg/kg, sc pre-infected with bacteria for 2 hrs followed by compound addition and measured after 26 hrs; assay type: functional

SMILES | pIC50 [1] | pIC50 [2] | pIC50 [3] | further results
O=C(O)c1[nH]c2c(c1-c1ccccc1Cl)CCc1ccccc1-2 | 6.66 | 6.00 | 8.51 | –
COc1ccc(-c2c(C(=O)O)[nH]c3c2CCc2ccccc2-3)cc1 | 4.47 | – | 6.04 | –
O=C(O)c1[nH]c2c(c1-c1cc(Cl)cc(Cl)c1)CCc1ccccc1-2 | 7.47 | 6.37 | 8.10 | Activity (Klebsiella pneumoniae [4]): Active; ΔTm [5]: 1 °C; Tm [6]: 14 °C; Tm [7]: 8 °C; Activity (Klebsiella pneumoniae [8]): Active; Activity [9]: Active; Tm [10]: 11 °C
COc1cc(F)cc(-c2c(C(=O)O)[nH]c3c2CCc2ccccc2-3)c1 | 5.46 | 4.82 | 8.17 | –
O=C(O)c1[nH]c2c(c1-c1cc(Cl)c(Cl)c(Cl)c1)CCc1ccccc1-2 | 5.66 | 5.92 | – | –
NCCN[C@H]1CC[C@H](CC(=O)N[C@H]2Cc3cccc(C(=O)O)c3OB2O)CC1 | 6.98 | 4.42 | – | –
O=C(O)c1[nH]c2c(c1-c1cccc(Cl)c1Cl)CCc1ccccc1-2 | – | 4.66 | 7.82 | –
O=C(O)c1[nH]c2c(c1-c1cc(F)cc(F)c1)CCc1ccccc1-2 | 6.24 | 5.25 | 7.33 | –
O=C(O)c1[nH]c2c(c1-c1cccc(F)c1F)CCc1ccccc1-2 | 5.72 | 5.62 | 6.57 | –
Cc1ccc(-c2c(C(=O)O)[nH]c3c2CCc2ccccc2-3)c(F)c1 | 5.82 | 5.34 | 8.11 | –
Cc1cc(Cl)cc(-c2c(C(=O)O)[nH]c3c2CCc2ccccc2-3)c1 | 6.25 | 6.49 | – | –
COc1cc(OC)cc(-c2c(C(=O)O)[nH]c3c2CCc2ccccc2-3)c1 | 6.51 | 6.04 | 8.30 | –
O=C(O)c1[nH]c2c(c1-c1cc(F)cc(Cl)c1)CCc1ccccc1-2 | 7.32 | 6.83 | 8.72 | Activity (Klebsiella pneumoniae [4]): Active; ΔTm [5]: 13 °C; Tm [6]: 17 °C; Tm [7]: 15 °C; Tm [11]: 9 °C; Activity (Klebsiella pneumoniae [8]): Active; Activity [9]: Active; Tm [10]: 16 °C
O=C(O)c1[nH]c2c(c1-c1ccc(Cl)cc1)CCc1ccccc1-2 | 5.77 | 5.68 | 8.51 | –
O=C(O)c1[nH]c2c(c1-c1cccc(Cl)c1)CCc1ccccc1-2 | 6.33 | 6.46 | 8.60 | –
Cc1cc(C(=O)O)[nH]c1-c1ccccc1 | 4.02 | 4.36 | 4.97 | –
Cc1cc(C)cc(-c2c(C(=O)O)[nH]c3c2CCc2ccccc2-3)c1 | 6.48 | 5.92 | 8.33 | –

SMILES | pIC50 [1] | pIC50 [2] | pIC50 [3] | further results
O=C(O)c1[nH]c2c(c1-c1ccccc1F)CCc1ccccc1-2 | 6.21 | 5.64 | 7.24 | –
O=C(O)c1[nH]c2c(c1-c1ccc(F)c(F)c1)CCc1ccccc1-2 | 5.96 | 5.19 | 8.54 | –
COc1cc(Cl)cc(-c2c(C(=O)O)[nH]c3c2CCc2ccccc2-3)c1 | 6.36 | 6.52 | – | –
O=C(O)c1[nH]c2c(c1-c1ccccc1)CCc1ccccc1-2 | 5.43 | 5.07 | 6.95 | –
C[C@@H](O)[C@H]1C(=O)N2C(C(=O)O)=C(S[C@@H]3CN[C@H](C(=O)N(C)C)C3)[C@H](C)[C@H]12 [MEROPENEM] | – | – | – | MIC (Escherichia coli [12]): 64 µg/mL (≈ 167 µM); MIC (Escherichia coli [13]): > 64 µg/mL; MIC (Klebsiella pneumoniae [14]): > 64 µg/mL; MIC (Enterobacter cloacae): > 64 µg/mL; MIC (Klebsiella pneumoniae [15]): 64 µg/mL; MIC (Escherichia coli [16]): 64 µg/mL; MIC [17]: 32 µg/mL; MIC (Escherichia coli [18]): 64 µg/mL (≈ 167 µM); MIC (Klebsiella pneumoniae [19]): > 64 µg/mL; MIC (Escherichia coli [20]): 64 µg/mL (≈ 167 µM); MIC [21]: > 64 µg/mL; MIC (Klebsiella pneumoniae [22]): 64 µg/mL; MIC (Klebsiella pneumoniae [23]): > 64 µg/mL; MIC (Escherichia coli [24]): 64 µg/mL
O=C(O)c1[nH]c2c(c1-c1cncc(Cl)c1)CCc1ccccc1-2 | 6.71 | 5.82 | 8.64 | –
O=C(O)c1ccccn1 [2-PICOLINIC ACID] | < 3.70 | < 3.70 | 4.86 | –
O=C(O)c1[nH]c2c(c1-c1cncc(F)c1)CCc1ccccc1-2 | 5.68 | 5.39 | 7.21 | –
O=C(O)c1[nH]c2c(c1-c1ccncc1)CCc1ccccc1-2 | 5.59 | 4.85 | 7.15 | –
C[C@@H](O)[C@H]1C(=O)N2C(C(=O)O)=C(SCCNC=N)C[C@H]12 [IMIPENEM ANHYDROUS] | – | – | – | MIC (Escherichia coli [12]): 16 µg/mL (≈ 53.4 µM); MIC (Escherichia coli [13]): 64 µg/mL; MIC (Klebsiella pneumoniae [14]): 64 µg/mL; MIC (Enterobacter cloacae): > 64 µg/mL; Activity (Klebsiella pneumoniae [25]): ~1.15 log10CFU/ml; MIC (Klebsiella pneumoniae [15]): 16 µg/mL; MIC (Escherichia coli [16]): 64 µg/mL; MIC [17]: 16 µg/mL; MIC (Escherichia coli [18]): 8 µg/mL (≈ 26.7 µM); MIC (Klebsiella pneumoniae [19]): > 64 µg/mL; MIC (Escherichia coli [20]): 8 µg/mL (≈ 26.7 µM); MIC [21]: > 64 µg/mL; MIC (Klebsiella pneumoniae [22]): 32 µg/mL; MIC (Klebsiella pneumoniae [23]): 32 µg/mL; MIC (Escherichia coli [24]): 32 µg/mL
CC(C)(C)c1ccc(-c2c(C(=O)O)[nH]c3c2CCc2ccccc2-3)cc1 | 6.10 | 5.07 | 7.82 | –
O=C(O)c1[nH]c2c(c1-c1cccc(F)c1)CCc1ccccc1-2 | 6.39 | 5.52 | 8.09 | –
COc1cc(F)ccc1-c1c(C(=O)O)[nH]c2c1CCc1ccccc1-2 | 6.24 | 5.77 | 7.63 | –
O=C(O)c1cc2c([nH]1)-c1ccccc1CC2 | 5.15 | 4.64 | 5.09 | –
COc1ccc(F)cc1-c1c(C(=O)O)[nH]c2c1CCc1ccccc1-2 | 6.57 | 6.42 | 8.12 | –
O=C(O)c1[nH]c2c(c1-c1ccc(Cl)cc1Cl)CCc1ccccc1-2 | 6.37 | 5.01 | 8.70 | –
COc1ccccc1-c1c(C(=O)O)[nH]c2c1CCc1ccccc1-2 | 6.00 | 5.52 | 6.73 | –
